Experimental data as given in the Deep4Chem optical property database.

Assay: solvent given as SMILES

For `CC(C)(C)c1ccc(-c2nc3c4ccc(-c5cc6ccccc6c6ccccc56)cc4c4cc(-c5cc6ccccc6c6ccccc56)ccc4c3n2-c2ccc(C(C)(C)C)cc2)cc1`, the absorption maximum (in C1CCOC1) was 325 nm, the absorption maximum (in C1COCCO1) was 325 nm and the absorption maximum (in CC#N) was 324 nm. The absorption maximum (in CCCCCC) was 325 nm, the absorption maximum (in CCCCOCCCC) was 326 nm and the absorption maximum (in CCN(CC)CC) was 325 nm. For the same compound, the absorption maximum (in CCOC(C)=O) was 324 nm, the absorption maximum (in CCOCC) was 234 nm and the absorption maximum (in CN(C)C=O) was 328 nm. The absorption maximum (in Cc1ccccc1) was 327 nm, the absorption maximum (in ClC=C(Cl)Cl) was 327 nm and the absorption maximum (in ClCCl) was 328 nm.

In the case of `CN(C)c1ccc(C2=Nc3sc4cc(C(F)(F)F)ccc4[n+]3[B-](F)(F)O2)cc1`, the absorption maximum (in C1CCOC1) is reported as 430 nm, the absorption maximum (in CC#N) is reported as 427 nm and the absorption maximum (in CC(C)=O) is reported as 431 nm. It also gave an absorption maximum (in Cc1ccccc1) of 428 nm and an absorption maximum (in ClCCl) of 431 nm.

Compound `CCN(CC)c1ccc2c(c1)oc(=O)c1c(=O)oc3cc([N+](=O)[O-])ccc3c12` has an absorption maximum (in CS(C)=O) of 498 nm and an absorption maximum (in ClCCl) of 494 nm.

`Nc1nc(/C=C/c2ccc(N(c3ccccc3)c3ccccc3)cc2)cc(/C=C/c2ccc(N(c3ccccc3)c3ccccc3)cc2)n1` showed an absorption maximum (in Cc1ccccc1) of 417 nm and an absorption maximum (in ClC(Cl)Cl) of 432 nm.

Work on `N#Cc1c(-n2c3ccccc3c3ccccc32)c(-n2c3ccccc3c3ccccc32)c(-n2c3ccccc3c3ccccc32)c(-n2c3ccccc3c3ccccc32)c1-n1c2ccccc2c2ccccc21` yielded an absorption maximum (in Cc1ccccc1) of 402.99 nm.

In the case of `N#Cc1c(-n2nnc3ccccc32)n([C@H]2C[C@H](O)[C@@H](CO)O2)c2ncnc(N)c12`, the absorption maximum (in CO) is reported as 278 nm.

In the case of `O=C1c2ccccc2C2=Nc3ccc4ccccc4[n+]3[B-](F)(F)N12`, the absorption maximum (in ClCCl) is reported as 387 nm.

Compound `Cc1cc(C)c(C2=C3C=C(c4ccc(C(C)(C)C)cc4)C(c4ccc(C(C)(C)C)cc4)=[N+]3[B-](F)(F)n3c2cc(-c2ccc(C(C)(C)C)cc2)c3-c2ccc(C(C)(C)C)cc2)c(C)c1` has an absorption maximum (in C1CCCCC1) of 602 nm, an absorption maximum (in C1CCOC1) of 602 nm and an absorption maximum (in CC#N) of 592 nm. The absorption maximum (in Cc1ccccc1) was 606 nm and the absorption maximum (in ClCCl) was 599 nm.

`COc1ccc2c(c1)CCC1=C(C#Cc3ccc(Cl)cc3)O[B-](F)(F)[O+]=C12` showed an absorption maximum (in ClCCl) of 445 nm.

Work on `CCCCCCCCCCOc1ccc(C#Cc2cc3c(C#Cc4ccc(OCCCCCCCCCC)cc4)c(C#Cc4ccc(OCCCCCCCCCC)cc4)c4cc(C#Cc5ccc(OCCCCCCCCCC)cc5)cc5c(C#Cc6ccc(OCCCCCCCCCC)cc6)c(C#Cc6ccc(OCCCCCCCCCC)cc6)c(c2)c3c45)cc1` yielded an absorption maximum (in ClCCl) of 421 nm.

In the case of `CC/[NH+]=c1\cc2oc3cc(NCCC(=O)NCC(=O)OC)c4ccccc4c3nc-2cc1C`, the absorption maximum (in CCO) is reported as 600 nm and the absorption maximum (in O) is reported as 590 nm.

`F[B-]1(F)OC(c2ccccc2)=Cc2c3ccccc3cc[n+]21` gave an absorption maximum (in ClC(Cl)Cl) of 400 nm.

For `Cc1cc(C)c(-c2cc(-c3c(C)cc(C)cc3C)c3ccc4c(-c5c(C)cc(C)cc5C)cc(-c5c(C)cc(C)cc5C)c5ccc2c3c54)c(C)c1`, the absorption maximum (in ClCCl) was 363 nm.

Compound `F[B-]1(F)n2c(cc3ccc4ccccc4c32)C(c2ccc(I)cc2)=C2C=C3CCc4ccccc4C3=[N+]21` has an absorption maximum (in ClC(Cl)Cl) of 634 nm.

For `CC1=N/C(=C\c2ccc(N(C)C)cc2)C(=O)N1C`, the absorption maximum (in C1CCCCC1) was 405 nm, the absorption maximum (in C1CCOC1) was 419 nm and the absorption maximum (in CC#N) was 422 nm. The absorption maximum (in CO) was 435 nm, the absorption maximum (in CS(C)=O) was 434 nm and the absorption maximum (in ClCCl) was 428 nm. It also gave an absorption maximum (in O) of 446 nm.

With `CC1=C[C@]2(C)C(=C3C(=C4C(C)=C(c5ccc(-c6nc(-c7ccccc7)c(-c7ccccc7)[nH]6)cc5)S[C@]42C)C(F)(F)C(F)(F)C3(F)F)S1` the absorption maximum (in C1CCOC1) was 505 nm.

With `COc1cc(N2CCOCCOCCN(c3cc(OC)c(NC(=O)c4ccc(-c5c6cc(Cl)c(=O)cc-6oc6cc([O-])c(Cl)cc56)c(C(=O)[O-])c4)cc3OC)CCOCC2)c(OC)cc1NC(=O)c1ccc(-c2c3cc(Cl)c(=O)cc-3oc3cc([O-])c(Cl)cc23)c(C(=O)[O-])c1` the absorption maximum (in O) was 507 nm.

Work on `N#CSc1ccc2n1[B-](F)(F)[N+]1=C(N3CCOCC3)C=CC1=C2c1ccccc1` yielded an absorption maximum (in CC#N) of 452 nm, an absorption maximum (in CCCCCC) of 492 nm and an absorption maximum (in CCOC(C)=O) of 464 nm. For the same compound, the absorption maximum (in CO) was 458 nm and the absorption maximum (in ClCCl) was 468 nm.

For `c1ccc(-c2nc(-c3ccccc3)c(N(c3ccccc3)c3ccccc3)s2)cc1`, the absorption maximum (in ClC(Cl)Cl) was 367 nm.

`Oc1ccc2ccccc2c1C1Nc2cccc3cccc(c23)N1` gave an absorption maximum (in CC#N) of 334 nm, an absorption maximum (in CO) of 333 nm and an absorption maximum (in CS(C)=O) of 350 nm. The absorption maximum (in Cc1ccccc1) was 337 nm.

Compound `CCCSC1=[N+]2C(=C(c3ccccc3)c3ccc(SCCC)n3[B-]2(F)F)C=C1` has an absorption maximum (in CC#N) of 574 nm, an absorption maximum (in CCCCCC) of 577 nm and an absorption maximum (in CCOC(C)=O) of 575 nm. The absorption maximum (in CO) was 574 nm and the absorption maximum (in ClCCl) was 579 nm.

With `O=C([O-])c1c(Cl)c(Cl)c(Cl)c(Cl)c1-c1c2cc(Cl)c(=O)c(Cl)c-2oc2c(Cl)c(O)c(Cl)cc12` the absorption maximum (in O) was 537 nm.

With `N#Cc1cccc2cc[nH]c12` the absorption maximum (in C1COCCO1) was 307.36 nm, the absorption maximum (in CC#N) was 309.69 nm and the absorption maximum (in O) was 308 nm.

`CCN(C(C)=O)c1cc2c(cc1C)C(c1ccccc1C(=O)O)=C1CCCC(/C=C/C3=[N+](C)c4ccc5ccccc5c4C3(C)C)=C1O2` gave an absorption maximum (in CCO) of 678 nm.

Compound `CC(C)c1cccc(C(C)C)c1N1C(=O)c2ccc3cc4c(cc5ccc6c7c(ccc4c57)C(=O)N(c4c(C(C)C)cccc4C(C)C)C6=O)c4ccc(c2c34)C1=O` has an absorption maximum (in ClCCl) of 648 nm.

In the case of `CC(N)=O`, the absorption maximum (in O) is reported as 220 nm.

`c1ccc(-n2c3c(c4c2-c2ccccc2C42c4ccccc4-c4ccccc42)C2(c4ccccc4-c4ccccc42)c2ccccc2-3)cc1` showed an absorption maximum (in C1CCOC1) of 375 nm.

`CN(C)c1ccc(/C=C/c2ccnc(/C=C/c3ccc(N(C)C)cc3)n2)cc1` showed an absorption maximum (in ClCCl) of 385 nm.

In the case of `Fc1nc(F)c(F)c(C#Cc2cc3c(cc2C#Cc2c(F)c(F)nc(F)c2F)OC2(CCCCC2)O3)c1F`, the absorption maximum (in CC#N) is reported as 360 nm.

With `C(=C\c1ccc(-c2cccc3ccccc23)s1)/c1cccs1` the absorption maximum (in ClCCl) was 370 nm.
